In patent publication US20240228482A1, “COMPOUNDS, COMPOSITIONS AND METHODS OF TREATING CANCER” (HOTSPOT THERAPEUTICS, INC., priority 2021, published 2024) one finds IC50 data, which are given here for 58 compounds.

Each structure is given as a SMILES string. pIC50: −log10 of the molar value.

T1 sequence (Q13191 whole entry): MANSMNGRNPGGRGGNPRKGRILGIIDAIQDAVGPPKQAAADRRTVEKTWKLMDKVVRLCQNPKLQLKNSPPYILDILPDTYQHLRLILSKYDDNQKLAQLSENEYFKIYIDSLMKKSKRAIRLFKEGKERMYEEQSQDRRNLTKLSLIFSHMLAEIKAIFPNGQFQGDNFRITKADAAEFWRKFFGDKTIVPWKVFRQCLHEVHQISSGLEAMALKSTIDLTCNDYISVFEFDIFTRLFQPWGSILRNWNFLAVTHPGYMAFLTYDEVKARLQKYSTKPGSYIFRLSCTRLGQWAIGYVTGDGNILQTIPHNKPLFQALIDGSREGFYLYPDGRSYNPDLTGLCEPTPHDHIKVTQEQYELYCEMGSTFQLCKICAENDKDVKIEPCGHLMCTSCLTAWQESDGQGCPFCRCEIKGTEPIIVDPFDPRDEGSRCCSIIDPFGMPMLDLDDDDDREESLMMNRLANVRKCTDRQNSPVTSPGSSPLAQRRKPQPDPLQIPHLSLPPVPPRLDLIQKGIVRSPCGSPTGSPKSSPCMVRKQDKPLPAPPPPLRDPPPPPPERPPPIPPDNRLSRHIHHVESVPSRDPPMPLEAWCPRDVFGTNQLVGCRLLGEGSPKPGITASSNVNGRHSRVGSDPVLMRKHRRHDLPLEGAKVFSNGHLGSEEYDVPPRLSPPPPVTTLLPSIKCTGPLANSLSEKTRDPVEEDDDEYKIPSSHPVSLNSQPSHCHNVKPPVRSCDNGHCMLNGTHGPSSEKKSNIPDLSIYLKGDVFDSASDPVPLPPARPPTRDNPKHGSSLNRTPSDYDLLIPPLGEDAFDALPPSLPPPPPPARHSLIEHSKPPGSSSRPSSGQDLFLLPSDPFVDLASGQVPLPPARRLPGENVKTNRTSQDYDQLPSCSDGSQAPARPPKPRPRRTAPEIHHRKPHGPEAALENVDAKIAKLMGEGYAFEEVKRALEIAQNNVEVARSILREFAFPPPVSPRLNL

This assay has as its target T1, CBL-B (Homo sapiens, UniProt Q13191).
T1 construct: GST
The assay is described as follows: CBL-B TR-FRET IC50 screening (E1/E2 ubiquitination, Biotin-Ubiquitin, Anti GST-Tb donor / Streptavidin-d2 acceptor). It counts as biochemical. As to conditions: CBL-B 10 nM final; 11-point titration from 100 uM; binned A-F; read-out: CBL-B TR-FRET activity IC50. For orientation: TR-FRET usually uses a lanthanide donor and a delayed reading to cut background.
As to `[2H]C([2H])([2H])n1cnnc1CC1(c2cccc(-n3cc4c(C(F)(F)F)cc([C@@H](C)N5CCO[C@H](C)C5)cn4c3=O)c2)COC1` [Compound 287_P2], the pIC50 – broadly, the negative decadic logarithm of the IC50, by convention in mol/L – was > 7.00. `C[C@@H]1CN(Cc2cc(C(F)(F)F)c3cn(-c4cccc([C@H](c5nncn5C)C5CCC5)c4)c(=O)n3c2)CCS1` [Compound 290]: the pIC50 is > 7.00. For `C[C@@H]1CN(Cc2cc(C(F)(F)F)c3cn(-c4cccc([C@H](c5nncs5)C5CCC5)c4)c(=O)n3c2)CCO1` [Compound 291] the value was < 5.00. Under `C[C@H]1CCCN(Cc2cc(C(F)(F)F)c3cn(-c4cccc(Cc5nncn5C)c4)c(=O)n3c2)C1` [Compound 294] stands 5.52 to 6.00. Under `Cn1cnnc1[C@@H](c1cccc(-n2cc3c(C(F)(F)F)cc(CN4CC5(CCCC5)C4)cn3c2=O)c1)C1CCC1` [Compound 295] stands > 7.00; under `COC1(C)CN(Cc2cc(C(F)(F)F)c3cn(-c4cccc([C@H](c5nncn5C)C5CCC5)c4)c(=O)n3c2)C1` [Compound 296], > 7.00. On to `Cn1cnnc1[C@@H](c1cccc(-n2cc3c(C(F)(F)F)cc(CN4CC(F)C4)cn3c2=O)c1)C1CCC1` [Compound 297], for which the pIC50 was > 7.00. For `Cn1cnnc1[C@@H](c1cccc(-n2cc3c(C(F)(F)F)cc(CN4CC(C)(F)C4)cn3c2=O)c1)C1CCC1` [Compound 298] the value was > 7.00; for `Cn1cnnc1[C@@H](c1cccc(-n2cc3c(C(F)(F)F)cc(CN4CC(F)(F)C4)cn3c2=O)c1)C1CCC1` [Compound 299], > 7.00; for `C[C@@H]1CN(Cc2cc(C(F)(F)F)c3cn(-c4cccc([C@@H](c5nncs5)C5CCC5)c4)c(=O)n3c2)CCO1` [Compound 300], 5.52 to 6.00. For `C[C@@H]1CN(Cc2cc(C(F)(F)F)c3cn(-c4cccc([C@H](c5nncn5C)C5COC5)c4)c(=O)n3c2)CCO1` [Compound 304] the value was > 7.00; for `Cn1cnnc1C1(c2cccc(-n3cc4c(C(F)(F)F)cc(CN5CCc6ncsc6C5)cn4c3=O)c2)CC2(CC2)C1` [Compound 307], > 7.00.

Regarding `C[C@H]1CCCN(Cc2cc(C(F)(F)F)c3cn(-c4cccc(C5(c6nncn6C)CC6(CCC6)C5)c4)c(=O)n3c2)C1` [Compound 310], the pIC50 is > 7.00. With `C[C@H]1CCCN(Cc2cc(C(F)(F)F)c3cn(-c4cccc(C5(c6nncs6)CC6(CC6)C5)c4)c(=O)n3c2)C1` [Compound 311], the negative-log IC50 (pIC50) is < 5.00. Under `COC1CN(Cc2cc(C(F)(F)F)c3cn(-c4cccc([C@H](c5nncn5C)C5CCC5)c4)c(=O)n3c2)C1` [Compound 312] stands > 7.00. For `Cn1cnnc1[C@@H](c1cccc(-n2cc3c(C(F)(F)F)cc(CN4CC(C(F)(F)F)C4)cn3c2=O)c1)C1CCC1` [Compound 313] the value was > 7.00; for `C[C@@H]1CN(Cc2cc(C(F)(F)F)c3cn(-c4cccc(N(c5nncn5C)C5CCC5)c4)c(=O)n3c2)CCO1` [Compound 314], < 5.00; for `Cn1cnnc1[C@@H](c1cccc(-n2cc3c(C(F)(F)F)cc(CN4CCc5scnc5C4)cn3c2=O)c1)C1CCC1` [Compound 315], > 7.00.

Take `Cn1cnnc1[C@@H](c1cccc(-n2cc3c(C(F)(F)F)cc(CN4CCn5cnnc5C4)cn3c2=O)c1)C1CCC1` [Compound 316]: the pIC50 was > 7.00. Take `Cn1cnnc1[C@@H](c1cccc(-n2cc3c(C(F)(F)F)cc(CN4CCn5ncnc5C4)cn3c2=O)c1)C1CCC1` [Compound 317]: the pIC50 is > 7.00. For `CO[C@H]1C[C@@](c2cccc(-n3cc4c(C(F)(F)F)cc(CN5CCC[C@H](C)C5)cn4c3=O)c2)(c2nncn2C)C1` [Compound 318] the value was > 7.00. Under `Cn1cnnc1[C@@H](c1cccc(-n2cc3c(C(F)(F)F)cc(CN4CCO[C@H](C(F)(F)F)C4)cn3c2=O)c1)C1CCC1` [Compound 321] stands > 7.00; under `Cn1cnnc1[C@@H](c1cccc(-n2cc3c(C(F)(F)F)cc(CNCC4COC4)cn3c2=O)c1)C1CCC1` [Compound 322], > 7.00.

Consider `CN(Cc1cc(C(F)(F)F)c2cn(-c3cccc([C@H](c4nncn4C)C4CCC4)c3)c(=O)n2c1)C1COC1` [Compound 323], for which the negative logarithm of the IC50 (pIC50) was > 7.00.

On to `Cn1cnnc1[C@@H](c1cccc(-n2cc3c(C(F)(F)F)cc(CNC4COC4)cn3c2=O)c1)C1CCC1` [Compound 324], for which the negative logarithm of the IC50 (pIC50) is > 7.00. For `CN(C)C(=O)C1CN(Cc2cc(C(F)(F)F)c3cn(-c4cccc([C@H](c5nncn5C)C5CCC5)c4)c(=O)n3c2)C1` [Compound 325] the value was > 7.00; for `Cc1[nH]nnc1[C@H](c1cccc(-n2cc3c(C(F)(F)F)cc(CN4CCC[C@H](C)C4)cn3c2=O)c1)C1CCC1` [Compound 326], > 7.00. For `Cc1[nH]nnc1[C@@H](c1cccc(-n2cc3c(C(F)(F)F)cc(CN4CCC[C@H](C)C4)cn3c2=O)c1)C1CCC1` [Compound 327] the value was > 7.00. Under `O=c1n(-c2cccc([C@H](c3nncs3)C3CCC3)c2)cc2c(C(F)(F)F)cc(CN3CCC4(CC4)C3)cn12` [Compound 328] stands 5.52 to 6.00; under `COC1CCN(Cc2cc(C(F)(F)F)c3cn(-c4cccc([C@H](c5nncs5)C5CCC5)c4)c(=O)n3c2)CC1` [Compound 330], 6.00 to 6.52; under `Cn1cnnc1[C@@H](c1cccc(-n2cc3c(C(F)(F)F)cc(-c4nncs4)cn3c2=O)c1)C1CCC1` [Compound 331], 6.00 to 6.52. Turning to `C[C@H]1CCCN(Cc2cc(C(F)(F)F)c3cn(-c4cccc([C@@H](CC5CC5)c5nncn5C)c4)c(=O)n3c2)C1` [Compound 332-p2], the pIC50 is > 7.00. For `C[C@H]1CCCN(Cc2cc(C(F)(F)F)c3cn(-c4cccc([C@H](CC5CC5)c5nncn5C)c4)c(=O)n3c2)C1` [Compound 332_P1] the value was < 5.00; for `O=c1n(-c2cccc([C@H](c3nncs3)C3CCC3)c2)cc2c(C(F)(F)F)cc(CN3CCC(F)CC3)cn12` [Compound 333], 6.52 to 7.00; for `C[C@H]1CCCN(Cc2cc(C(F)(F)F)c3cn(-c4cccc(N(c5nncn5C)C5COC5)c4)c(=O)n3c2)C1` [Compound 334], > 7.00. For `Cn1cnnc1[C@@H](c1cccc(-n2cc3c(C(F)(F)F)cc(CN4CC(C)(C)C4)cn3c2=O)c1)C1CCC1` [Compound 337] the value was > 7.00; for `Cn1cnnc1[C@@H](c1cccc(-n2cc3c(C(F)(F)F)cc(CN4CC(Oc5ccc(Cl)cc5)C4)cn3c2=O)c1)C1CCC1` [Compound 338], > 7.00. Under `CC(=O)N1CCN(Cc2cc(C(F)(F)F)c3cn(-c4cccc([C@@H](c5nncn5C)C5CCC5)c4)c(=O)n3c2)CC1` [Compound 339_P1] stands > 7.00; under `CC(=O)N1CCN(Cc2cc(C(F)(F)F)c3cn(-c4cccc([C@H](c5nncn5C)C5CCC5)c4)c(=O)n3c2)CC1` [Compound 339_P2], 5.52 to 6.00.

Turning to `Cn1cnnc1[C@H](c1cccc(-n2cc3c(C(F)(F)F)cc(CN4CCN(C=O)CC4)cn3c2=O)c1)C1CCC1` [Compound 340_P1], the negative-log IC50 (pIC50) is > 7.00. Under `Cn1cnnc1[C@@H](c1cccc(-n2cc3c(C(F)(F)F)cc(CN4CCN(C=O)CC4)cn3c2=O)c1)C1CCC1` [Compound 340_P2] stands 5.52 to 6.00; under `C[C@H]1CCCN(Cc2cc(C(F)(F)F)c3cn(-c4cccc(C5(c6nncn6C)CCC5)c4)c(=O)n3c2)C1` [Compound 341], > 7.00.

On to `C[C@H]1CCCN(Cc2cc(C(F)(F)F)c3cn(-c4cccc(N(c5nncs5)C5CCC5)c4)c(=O)n3c2)C1` [Compound 344], for which the pIC50 was < 5.00. For `Cn1cnnc1[C@@H](c1cccc(-n2cc3c(C(F)(F)F)cc(CN4CCc5ncsc5C4)cn3c2=O)c1)C1COC1` [Compound 345] the value was > 7.00. On to `Cn1cnnc1[C@@H](c1cccc(-n2cc3c(C(F)(F)F)cc(CNC4CC(F)(F)C4)cn3c2=O)c1)C1CCC1` [Compound 346], for which the negative-log IC50 (pIC50) is < 5.00. For `CN(Cc1cc(C(F)(F)F)c2cn(-c3cccc([C@H](c4nncn4C)C4CCC4)c3)c(=O)n2c1)CC1COC1` [Compound 347] the value was > 7.00; for `CC(=O)N1CC2CCC(C1)N2Cc1cc(C(F)(F)F)c2cn(-c3cccc([C@H](c4nncn4C)C4CCC4)c3)c(=O)n2c1` [Compound 348], 6.52 to 7.00; for `CC(=O)N1C2CCC1CN(Cc1cc(C(F)(F)F)c3cn(-c4cccc([C@H](c5nncn5C)C5CCC5)c4)c(=O)n3c1)C2` [Compound 349], > 7.00.

`CC1CCCN(Cc2cc(C(F)(F)F)c3cn(-c4cccc([C@H](c5nncn5C)C5CCC5)c4)c(=O)n3c2)CC1` (stereo partly shown) [Compound 350]: the pIC50 was 6.52 to 7.00. Under `COC(=O)N1CCN(Cc2cc(C(F)(F)F)c3cn(-c4cccc([C@@H](c5nncn5C)C5CCC5)c4)c(=O)n3c2)CC1` [Compound 351_P1] stands 5.52 to 6.00. For `COC(=O)N1CCN(Cc2cc(C(F)(F)F)c3cn(-c4cccc([C@H](c5nncn5C)C5CCC5)c4)c(=O)n3c2)CC1` [Compound 351_P2] the value was > 7.00. Turning to `C[C@H]1CCCN(Cc2cc(C(F)(F)F)c3cn(-c4cccc([C@H](CC5CCC5)c5nncn5C)c4)c(=O)n3c2)C1` [Compound 352_P1], the negative logarithm of the IC50 (pIC50) is < 5.00.

Turning to `C[C@H]1CCCN(Cc2cc(C(F)(F)F)c3cn(-c4cccc([C@@H](CC5CCC5)c5nncn5C)c4)c(=O)n3c2)C1` [Compound 352_P2], the pIC50 was 6.52 to 7.00. Under `Cn1cnnc1[C@@H](c1cccc(-n2cc3c(C(F)(F)F)cc(CN4Cc5ncsc5C4)cn3c2=O)c1)C1CCC1` [Compound 357] stands > 7.00. Turning to `C[C@H]1CCCCN1Cc1cc(C(F)(F)F)c2cn(-c3cccc([C@@H](c4nncn4C)C4CCC4)c3)c(=O)n2c1` [Compound 362_P1], the negative logarithm of the IC50 (pIC50) was > 7.00. On to `C[C@H]1CCCCN1Cc1cc(C(F)(F)F)c2cn(-c3cccc([C@H](c4nncn4C)C4CCC4)c3)c(=O)n2c1` [Compound 362_P2], for which the pIC50 is 6.52 to 7.00. Under `C[C@@H]1CCCCN1Cc1cc(C(F)(F)F)c2cn(-c3cccc([C@@H](c4nncn4C)C4CCC4)c3)c(=O)n2c1` [Compound 363_P1] stands < 5.00; under `C[C@@H]1CCCCN1Cc1cc(C(F)(F)F)c2cn(-c3cccc([C@H](c4nncn4C)C4CCC4)c3)c(=O)n2c1` [Compound 363_P2], > 7.00.
